The values that follow come from patent US7560462B2, “Compounds useful for inhibiting CHK1” (ICOS Corporation, priority 2004, dated 2009).

Assay [1] concerns Chk1 phosphorylation in HT29 cells. Nature of the assay: Western blot of Chk1 phosphorylation at serines 317 and 345. The assay is classed as cell-based, human. To be noted: 20 μM for two h, then 22 h washout. An excerpt:
To determine whether an agent is a Chk1 activator, the phosphorylation state of Chk1 can be measured using phospho-specific antibodies to specific phosphorylation sites on Chk1. […] Liu et al., Genes Dev. 14:1448-59, 2000; Zhao et al., Mol. Cell. Biol. 21:4129-39, 2001; Lopez-Girona et al., Proc. Natl. Acad. Sci. U.S.A. 98:11289-94, 2001; Guo et al., Genes Dev. 14:2745-56, 2000; Gatei et al., J. Biol. Chem. 278:14806-11, 2003; Ng et al., J Biol. Chem. 279(10):8808-19, 2004; Wang et al., Natl Acad Sci USA. 100(26):15387-92, 2003; Stojic et al., Genes Dev. 18(11):1331-44, 2004. These serine sites are phosphorylated by upstream checkpoint kinases, Atm and Atr. Liu et al., Genes Dev. 14:1448-59, 2000; Zhao et al. Mol. Cell. Biol., 21:4129-39, 2001).
The phosphorylation of these sites in response to a candidate Chk1 activator can be monitored by Western blot or immunohistochemistry of tumor cells. […] HT29 cells are treated with 20 μM gemcitabine for two h. The gemcitabine is washed out of the cell growth media and cells are incubated for 22 additional h. Protein lysates are prepared and separated by an SDS-polyacrylamide gel electrophoresis. Proteins are transferred to PVDF membranes and probed with antisera (Cell Signalling) specific for either phosphorylated serine 317 or 345 (Cell Signalling).
Background: A western blot detects proteins with antibodies after separation by electrophoresis.

Assay [2] concerns colon tumor cell line xenograft tumors. Nature of the assay: Animal tumor models (xenograft). The assay is classed as in vivo, Balb/c (nu/nu) mice. The conditions noted are these: 160 mg/kg i.p., xenograft mice. An excerpt:
To test the ability of the Chk1 inhibitors of the invention to enhance the killing of tumors by DNA damaging agents in mice, xenograft tumor models using colon tumor cell lines are established. 5-fluorouracil (5-FU) or gemcitabine can be used as DNA damaging agents; HT29 and Colo205 (human colon carcinoma) and H460 and Calu-6 (nonsmall cell carcinoma) cells can be used to propagate xenograft tumors in 6-8 week old female […] Balb/c (nu/nu) mice. Mice are maintained in a laminar airflow cabinet under pathogen-free conditions and fed sterile food and water ad libitum. Cell lines are grown to subconfluence in RPMI 1640 media supplemented with 10% FBS, 100 U/mL penicillin, 100 μg/mL streptomycin, and 1.5 mM L-glutamine in a 5% CO2 humidified environment. Single cell suspensions are prepared in CMF-PBS, and cell concentration adjusted to 1×10^8 cells/mL. Mice are inoculated subcutaneously (s.c.) on the right flank or right leg with a total of 1×10^7 cells (100 μL). Mice are randomized (5-15 mice/group) into four treatment groups and used when tumors reach a volume of […] (usually 7-11 days post-inoculation). Tumors are measured with vernier calipers and tumor volumes are estimated using the empirically derived formula: tumor volume (cm^3)=tumor length (cm)×tumor width (cm)×tumor depth (cm)/3.3. […] Tumor size is monitored every other day for the duration of the experiment.

Assay [3] relates to Chk1 serine 296 phosphorylation in HT29 cells. The assay can be described thus: Western blot of Chk1 phosphorylation at serine 296. The assay is classed as cell-based, human. As to the method:
Phosphorylation at this site is not inhibited by wortmannin, which inhibits Atm and Atr. Therefore, the phosphorylation of serine 296 is distinct from phosphorylation at serines 317 and 345. […] Therefore, this approach can be used to monitor Chk1 activity in tumors in response to Chk1 activators. Further, this approach can be used to measure inhibition of Chk1 activation by Chk1 inhibitors.
Thus, HT 29 cells are treated with 20 μM gemcitabine for two h. The gemcitabine is washed out of the cell growth media and cells are incubated for 22 additional h. Protein lysates are prepared and separated by an SDS-polyacrylamide gel electrophoresis. Proteins are transferred to polyvinylidene fluoride (PVDF) membranes and probed with antisera (Cell Signalling) specific for phosphorylated serine 296 (Cell Signalling). […] Further, HT29 cells treated with selective Chk1 inhibitors for 15 min show no serine 296 phosphorylation.

Consider `Nc1ccn([C@@H]2O[C@H](CO)[C@@H](O)C2(F)F)c(=O)n1` [gemcitabine, 2′,2′ difluoro-2′-deoxycytidine], for which the “phosphorylation of Chk1 serines 317 and 345” value in assay [1] was “results in the phosphorylation of both serines 317 and 345”. Besides, the tumor growth entry in assay [2] is listed as “delay in tumor growth is observed”. For the same molecule, in assay [3] (HT29 cells, 20 μM for two h, then 22 h washout), the “phosphorylation of Chk1 serine 296” value is “results in the phosphorylation of serine 296”.
For the molecule `COC[C@H]1OC(=O)c2coc3c2[C@@]1(C)C1=C(C3=O)[C@@H]2CCC(=O)[C@@]2(C)C[C@H]1OC(C)=O` [wortmannin], the “inhibition of Chk1 serine 296 phosphorylation” value in assay [3] (gemcitabine-stimulated tumor cells) was “not inhibited”.
